Here are results for 2 molecules from publication PMC6851324, “Design and development of stapled transmembrane peptides that disrupt the activity of G-protein–coupled receptor oligomers” (The Journal of Biological Chemistry, 2019).

Where a SMILES comes first, the peptide text is derived from it.

For orientation: half-life means the time in which the quantity being followed falls by half.

The target in series [1] is T1, α-chymotrypsin from bovine pancreas (Bos taurus, UniProt P00766, DEL14-15/DEL147-148).
T1 construct: purchased Sigma Type II; host or cells: bovine pancreas
The series is described as follows: Proteolytic stability against chymotrypsin. The class given is in vitro ADME. The conditions noted are these: cattle, isolated enzyme chymotrypsin; 55.5 μM peptide, 0.55 μg/ml α-chymotrypsin from bovine pancreas, ammonium bicarbonate buffer pH 7.5, 37 °C, 15–480 min, intact peptide by RP-HPLC, n = 3, nonlinear regression fit; read-out: Half-life (min), α-chymotrypsin. Here is the method:
(§1) Figure 4. Biophysical analysis of stapled peptides. A, amino acid sequence alignment of the targeted TM regions and disrupting peptides. Cys residues are in the reduced state. Blue bridges indicate the stapled amino acid residues. […] Yields, purity, and MALDI-TOF data are shown for the stapled peptides and negative control. B, CD analysis of 30–50 μM peptides at 20 °C. For proteolytic stability studies, the peptide solution (55.5 μM for trypsin and chymotrypsin and 11.1 μM for serum) was incubated in the presence of 0.55 μg/ml trypsin from porcine pancreas (E), α-chymotrypsin (F), or mouse serum (G) at 37 °C for the indicated times (indicated on the x axis). Data are mean ± S.E. (error bars) (n = 3) percentage of intact peptide normalized to t = 0. Proteolytic half-lives and putative cleavage sites (predicted using the Expasy bioinformatics server's model with a 50% probability of cleavage) are indicated at the bottom of each panel. Positive correlation between helicity and half-life in trypsin/chymotrypsin (C) or serum (D) was determined by two-tailed Pearson's correlation test. TEXT PRINTED IN THE PICTURE: (B) TM7-TAT: Ellipticity (%): 3.4 | (B) TM6-TAT: Ellipticity (%): 18.3 | (B) TM5-TAT: Ellipticity (%): 20.9 | (B) 8: Ellipticity (%): 58.3 | (B) 9: Ellipticity (%): 46.4 | (B) 10: Ellipticity (%): 36.8 | (B) 11: Ellipticity (%): 46 | (E) TM7-TAT: Half-life (min): 21; #Cleavage sites: 8 | (E) TM6-TAT: Half-life (min): 40; #Cleavage sites: 7 | (E) TM5-TAT: Half-life (min): 33; #Cleavage sites: 8 | (E) 8: Half-life (min): 307; #Cleavage sites: 0 | (E) 9: Half-life (min): 178; #Cleavage sites: 0 | (E) 10: Half-life (min): 75; #Cleavage sites: 6 | (E) 11: Half-life (min): 84; #Cleavage sites: 0 | (F) TM7-TAT: Half-life (min): 22; #Cleavage sites: 6 | (F) TM6-TAT: Half-life (min): 32; #Cleavage sites: 7 | (F) TM5-TAT: Half-life (min): 28; #Cleavage sites: 7 | (F) 8: Half-life (min): 425; #Cleavage sites: 4 | (F) 9: Half-life (min): 198; #Cleavage sites: 3 | (F) 10: Half-life (min): 63; #Cleavage sites: 2 | (F) 11: Half-life (min): 79; #Cleavage sites: 4 | (G) TM7-TAT: Half-life (hours): 0.46 | (G) TM6-TAT: Half-life (hours): 0.55 | (G) TM5-TAT: Half-life (hours): 0.81 | (G) 8: Half-life (hours): ≥18 | (G) 9: Half-life (hours): 14.7 | (G) 10: Half-life (hours): 11.7 | (G) 11: Half-life (hours): 5.3 DOUBTS OF THE COPYIST ABOUT THIS PICTURE: Panel A table (Yield, Rt, Purity, [M+H+] calc., [M+H+] Peak Found for 7-11) left out as synthesis and mass-spectrum characterisation data; uncertain whether [M+H+] calc. should count as a molecular weight
(§2) Dose–response curves were fitted using a four-parameter logistic nonlinear regression mode. Peptide stability data were fitted using a nonlinear regression mode for dissociation kinetics. All statistical tests, curve fitting, and graphing were performed using GraphPad Prism 8 (GraphPad Software, La Jolla, CA).
To 100 μl of peptide solution (100 μM, dissolved in ammonium bicarbonate buffer, pH 7.5), 60 μl of ammonium bicarbonate buffer (pH 7.5) was added, together with 20 μl of temperature-equilibrated (37 ± 1 °C) α-chymotrypsin (5 μg/ml) from bovine pancreas (Sigma, Type II, activity > 40 units/mg protein). Peptides were incubated for 15, 30, 60, 120, 240, and 480 min, and then MeOH (HPLC grade) + 0.05% TFA was added. The samples were then centrifuged (15,000 rpm), and supernatant was analyzed in a similar manner as described above. The experiment was repeated twice on different days.

Another series in a line: Stability in mouse serum. The class given is in vitro ADME. The note with it: 11.1 μM peptide, fresh nonsterile mouse serum (200 μl serum + 25 μl peptide solution, pH 7.5 buffer with 10% DMSO), 37 °C, quench 15% TCA in acetonitrile, HPLC, n = 3; read-out: Half-life (hours), mouse serum (converted). On the procedure:
as §1, §2
To 200 μl of fresh nonsterile mouse serum was added 25 μl of peptide solution (100 μM, dissolved in ammonium bicarbonate buffer, pH 7.5, containing 10% DMSO), and the mixture was incubated at 37 °C. At the specified time, an aliquot of incubation mixture was withdrawn and quenched by the addition of an equal volume of 15% TCA in acetonitrile to precipitate out serum proteins over ice for 30 min. The mixture was then centrifuged at 13,500 rpm for 10 min, and the supernatant was collected and analyzed by HPLC in a similar manner as described previously. The experiment was repeated twice on different days.

Series [2] deals with T2, trypsin from porcine pancreas (Sus scrofa, UniProt P00761).
T2 construct: purchased Sigma; host or cells: porcine pancreas
T2 sequence (P00761 9-231): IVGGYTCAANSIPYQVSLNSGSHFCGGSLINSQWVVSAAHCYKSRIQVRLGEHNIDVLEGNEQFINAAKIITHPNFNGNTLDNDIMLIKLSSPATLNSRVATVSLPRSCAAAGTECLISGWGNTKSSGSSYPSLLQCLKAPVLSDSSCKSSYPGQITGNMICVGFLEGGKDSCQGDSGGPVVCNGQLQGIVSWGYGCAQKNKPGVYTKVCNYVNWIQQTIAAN
As to the kind of experiment: Proteolytic stability against trypsin. The class given is in vitro ADME. The note with it: pig, isolated enzyme trypsin; 55.5 μM peptide, 0.55 μg/ml trypsin from porcine pancreas, ammonium bicarbonate buffer pH 7.5, 37 °C, 15–480 min, intact peptide by RP-HPLC (Fmoc-Gly internal standard), n = 3, nonlinear regression fit; read-out: Half-life (min), trypsin. On the procedure: as §1, §2
To 100 μl of peptide solution (100 μM, dissolved in ammonium bicarbonate buffer, pH 7.5), 60 μl of ammonium bicarbonate buffer (pH 7.5) was added, together with 20 μl of temperature-equilibrated (37 ± 1 °C) trypsin (5 μg/ml) from porcine pancreas (Sigma, 13,000–20,000 BAEE units/mg of protein). Peptides were incubated for 15, 30, 60, 120, 240, and 480 min, and then MeOH (HPLC Grade) + 0.05% TFA was added. The samples were then centrifuged (15,000 rpm), and the supernatant was analyzed, using Fmoc-Gly (10 μl, 0.2 mM) as an internal standard. The digestion at each time point was repeated three times to give the average values along with S.D. The amount of intact peptide that remained in the mixture was quantified by RP-HPLC. The experiment was repeated twice on different days.

In a further series the test system is 5-HT2AR–CB1R heteromers. Further details: method as in 2 sources, ref 16 = [16]; PMID 26158621; doi:10.1371/journal.pbio.1002194; 16. Viñals X. , Moreno E. , Lanfumey L. , Cordomí A. , Pastor A. , de La Torre R. , Gasperini P. , Navarro G. , Howell L. A. , Pardo L. , Lluís C. , Canela E. I. , McCormick P. J. , Maldonado R. , and ||| ref 4, unpublished observations. The note with it: synthetic TM-mimicking peptides fused to HIV-TAT; cited from earlier work.

Series [3] concerns the target T3, 5-HT2AR N-terminally tagged with LgBiT or SmBiT, CMV promoter (human, UniProt P28223 1-471).
T3 construct: 5-hydroxytryptamine 2A receptor (5-HT2AR), human, cloned from the cDNA Resource Center plasmid; also called SmBiT–5-HT2AR; SmBiT 5-HT2AR; source: HEK293, transiently transfected (CMV promoter), live cells; not shown: LgBiT or SmBiT (one of the two on each copy; SmBiT in the peptide screen), N-terminal, kept
The series is described as follows: split reporter (BiFC, NanoBiT); NanoBiT orientation screens: LgBiT and SmBiT receptor fusions (C- or N-terminal, CMV promoter) transiently co-transfected in HEK293 cells at 50 or 100 ng of receptor/well, compared with each construct alone; live cells, 24 h post-transfection, furimazine substrate. The conditions noted are these: partners not purified.

T3 sequence (P28223 whole entry): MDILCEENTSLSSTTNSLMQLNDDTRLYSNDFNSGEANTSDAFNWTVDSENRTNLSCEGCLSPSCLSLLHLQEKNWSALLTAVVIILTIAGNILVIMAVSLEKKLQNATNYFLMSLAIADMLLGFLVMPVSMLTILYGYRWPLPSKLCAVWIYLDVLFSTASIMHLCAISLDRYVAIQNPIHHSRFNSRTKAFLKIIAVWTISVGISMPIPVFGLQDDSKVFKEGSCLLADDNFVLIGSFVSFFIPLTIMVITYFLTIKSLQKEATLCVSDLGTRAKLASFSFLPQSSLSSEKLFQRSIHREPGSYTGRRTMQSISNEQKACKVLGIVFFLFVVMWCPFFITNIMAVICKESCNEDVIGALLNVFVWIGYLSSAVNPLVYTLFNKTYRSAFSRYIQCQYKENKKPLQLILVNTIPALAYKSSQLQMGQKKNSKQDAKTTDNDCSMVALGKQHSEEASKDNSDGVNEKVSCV

As to `CC[C@H](C)[C@H](NC(=O)[C@@H](NC(=O)[C@@H]1CCCN1C(=O)[C@H](CC(N)=O)NC(=O)[C@@H](NC(=O)[C@@H](NC(=O)[C@H](CO)NC(=O)[C@H](CC(N)=O)NC(=O)[C@H](CC(C)C)NC(=O)[C@H](CC(C)C)NC(=O)[C@H](CS)NC(=O)[C@H](CC(C)C)NC(=O)[C@H](CCSC)NC(=O)[C@H](CO)NC(=O)[C@H](CS)NC(=O)[C@H](Cc1ccccc1)NC(=O)[C@H](C)NC(=O)[C@H](Cc1ccccc1)NC(=O)[C@@H](NC(=O)[C@@H](NC(=O)[C@H](CCCCN)NC(=O)[C@@H](NC(=O)[C@@H](N)CC(C)C)[C@@H](C)CC)[C@@H](C)O)C(C)C)[C@@H](C)O)C(C)C)[C@@H](C)CC)C(=O)N[C@@H](Cc1ccc(O)cc1)C(=O)N[C@@H](C)C(=O)N[C@@H](CC(C)C)C(=O)N[C@@H](CCCNC(=N)N)C(=O)NCC(=O)N[C@@H](CCCNC(=N)N)C(=O)N[C@@H](CCCCN)C(=O)N[C@@H](CCCCN)C(=O)N[C@@H](CCCNC(=N)N)C(=O)N[C@@H](CCCNC(=N)N)C(=O)N[C@@H](CCC(N)=O)C(=O)N[C@@H](CCCNC(=N)N)C(=O)N[C@@H](CCCNC(=N)N)C(=O)N[C@@H](CCCNC(=N)N)C(=O)O` [TM7-TAT, reference compound] (H-LIKTVFAFCSMLCLLNSTVNPIIYALRGRKKRRQRRR-OH), the half-life at 55.5 μM in series [1] is 22 min; in series [2], 21 min. Besides, the half-life at 11.1 μM in the series “Stability in mouse serum” is 0.46 h. In addition, the “disruption of 5-HT2AR–CB1R heteromers (previous studies)” value with 5-HT2AR–CB1R heteromers was “did not disrupt the heteromer”.

B1: CB1R N-terminally tagged with LgBiT or SmBiT, CMV promoter (receptor, human, UniProt P21554 1-472, looked up)
chain: MKSILDGLADTTFRTITTDLLYVGSNDIQYEDIKGDMASKLGYFPQKFPLTSFRGSPFQEKMTAGDNPQLVPADQVNITEFYNKSLSSFKENEENIQCGENFMDIECFMVLNPSQQLAIAVLSLTLGTFTVLENLLVLCVILHSRSLRCRPSYHFIGSLAVADLLGSVIFVYSFIDFHVFHRKDSRNVFLFKLGGVTASFTASVGSLFLTAIDRYISIHRPLAYKRIVTRPKAVVAFCLMWTIAIVIAVLPLLGWNCEKLQSVCSDIFPHIDETYLMFWIGVTSVLLLFIVYAYMYILWKAHSHAVRMIQRGTQKSIIIHTSEDGKVQVTRPDQARMDIRLAKTLVLILVVLIICWGPLLAIMVYDVFGKMNKLIKTVFAFCSMLCLLNSTVNPIIYALRSKDLRHAFRSMFPSCEGTAQPLDNSMGDSDCLHKHANNAASVHRAAESCIKSTVKIAKVTMSVSTDTSAEAL
notes: cannabinoid receptor type 1 (CB1R), human, cloned from the cDNA Resource Center plasmid; also called LgBiT–CB1R; LgBT–CB1R; source: HEK293, transiently transfected (CMV promoter), live cells; not shown: LgBiT or SmBiT (one of the two on each copy; LgBiT in the peptide screen), N-terminal, kept
As for B1, in series [3], the “fold change of luminescence over the individual receptor construct” value was approximately 200 fold.
